According to US6841563B1, “Aryloxy propanolamines for improving livestock production” (Eli Lilly and Company, priority 1999, dated 2005):
Marks after values point to notes of the source that are not given here.

Columns and labels:
[1] = Intravenous administration to cattle: serum non-esterified fatty acid (NEFA) and serum urea nitrogen (SUN) levels; type: in vivo; conditions: for ΔNEFA 24 Hours / change in vivo at 0.04 mg/kg: 40 μg per kilogram i.v. twice; for ΔNEFA 24 Hours: T+24 h minus T=0; for ΔNEFA 24 Hours / ΔNEFA 15 Min. / change in vivo at 0.04 mg/kg: mean of five animals; for ΔNEFA 15 Min.: 40 μg per kilogram i.v., T+15 min minus T=0; for change in vivo at 0.04 mg/kg: Bos taurus, iv, 24 hours post treatment vs baseline T=0, read-out: Δ% SUN 24 Hours; for lipolytic effects (non-esterified fatty acid levels): fifteen minutes and twenty-four hours after administration; for anabolic effects (change in serum urea nitrogen levels): twenty-four hours after administration, compared with the corresponding carboxamide regioisomers
From the text: Intravenous administration of the compounds of the present invention to cattle increases serum non-esterified fatty acids and decreases serum urea. In this Example, angus/angus cross calves, both heifers and steers, weighing approximately 282 pounds (128 kg) initially to 788 pounds (357.8 kg) over the course of these studies, were placed in pens at 5 calves per pen. The cattle were acclimated to the pens for at least 1 week prior to initiating the study.
Calves were fed ad libitum twice daily, (approximately 6-15 pounds (2.7-6.8 kg)/day). During the treatment day, in the A.M. period, the feeding times were staggered to ensure that all animals were fed approximately one hour before the treatments were administered. During the P.M. treatment period, the cattle were fed immediately after receiving the P.M. injection.
After taking a pretreatment (T=O) blood sample from each animal, a 40 μg per kilogram dose of a test compound was administered intravenously in the jugular vein at 6:30 A.M. and 2:30 P.M. Each test compound was administered at a concentration of 1.00-1.25 mg/ml in a treatment vehicle that was a 50/50 mixture of polyethylene glycol 200/water.
A blood sample was taken at fifteen minutes post-treatment (T+15 min). The calves were returned to their respective pens until their next treatment, approximately eight hours later. The next morning at 6:30 A.M. a blood sample was collected from all calves at 24 hours post-treatment (T+24 h). All blood samples were analyzed for the non-esterified fatty acid level (NEFA) and serum urea nitrogen level (SUN). The post-treatment NEFA and SUN levels in each individual animal were compared with the levels found before treatment.

[2] = Weight gain, feed efficiency and carcass characteristics, last 14 days of growing period in broiler chickens; type: in vivo
From the text: Approximately 1500 Peterson-Hubbard, day-old, male chicks were used in a randomized, complete-block design with 4 treatments (Control, Clenbuterol at 1 PPM, and Compound 6 at 3 and 15 PPM (mg/kg feed)). The testing facility contained 36 pens, divided equally into 6 blocks. Treatments were randomly allotted to pens within each block. Each treatment consisted of 6 pens with 10 birds per pen.
Day-of-age birds were obtained from Pine Manor Hatchery in Goshen, Ind. Approximately 40 birds per pen were set at random upon receipt. On day 30 of the growout period, all birds were weighed and the 15 birds closest to the block mean were selected. These birds were allowed to acclimate until day 35 of age. On that day, all remaining birds were weighed again, and the 10 birds/pen closest to the block mean were chosen for the treatment phase. Birds were provided ad libitum access to feed and water throughout the trial. All birds were fed a 23% crude protein corn-soy ration from day 1 until day 18 of age. The feed was changed to a 20% crude protein corn-soy ration from day 18 to day 49. The treatment feed was mixed using the same 20% crude protein basal ration. Treatments were administered in the feed from day 35 through day 49. Feed consumption was calculated over the entire 14-day treatment period. Birds were weighed at trial completion (day 49), and transported to Purdue University, West Lafayette, Ind. 47907, U.S.A. meat laboratory for slaughter and carcass measurements on day 50. Weights of the hot carcass, fat pad, and viscera were taken on all animals.

SMILES | ΔNEFA 24 Hours [1] | ΔNEFA 15 Min. [1] | change in vivo at 0.04 mg/kg [1] | other results
CC(C)(Cc1ccc(Oc2ccc(C(N)=O)cn2)cc1)NC[C@H](O)COc1cccc2[nH]ncc12 [Compound 1] | 820.9 µmol/L | 554.4 µmol/L | -28.7% | –
CC(C)(Cc1ccc(Oc2ccc(C(N)=O)cn2)cc1)NC[C@H](O)COc1cccc2[nH]ccc12 [Compound 5] | -5.6 µmol/L | 170.8 µmol/L | -28.6% | –
Cc1c[nH]c2cccc(OC[C@@H](O)CNC(C)(C)Cc3ccc(Oc4ncccc4C(N)=O)cc3)c12 [Compound 12] | -63.7 µmol/L | 332.6 µmol/L | -30.1% | –
CC(C)(Cc1ccc(Oc2cccc(Cl)c2C(N)=O)cc1)NC[C@H](O)COc1cccc2[nH]c(C#N)cc12 [Compound 13] | 32.1 µmol/L | 118.1 µmol/L | -36.7% | –
CC(C)(Cc1ccc(Oc2ccc(C(N)=O)cn2)cc1)NC[C@H](O)COc1cccc2[nH]c(=S)[nH]c12 [Compound 3] | 200.2 µmol/L | 379.4 µmol/L | -38.2% | –
CC(C)(Cc1ccc(Oc2ccc(Cl)cc2C(N)=O)cc1)NC[C@H](O)COc1cccc2[nH]ccc12 [Compound 11] | -14.1 µmol/L | 94 µmol/L | -39.4% | –
CC(C)(Cc1ccc(Oc2ccccc2C(N)=O)cc1)NC[C@H](O)COc1cccc2[nH]ccc12 [Compound 9] | -15.4 µmol/L | 99 µmol/L | -37% | –
CC(C)(Cc1ccc(Oc2ncccc2C(N)=O)cc1)NC[C@H](O)COc1cccc2[nH]c(=O)[nH]c12 [Compound 8] | 35.6 µmol/L | 321.4 µmol/L | -14.2% | lipolytic effects (non-esterified fatty acid levels) [1]: modest lipolytic effects; anabolic effects (change in serum urea nitrogen levels) [1]: significantly greater
CC(C)(Cc1ccc(Oc2ncccc2C(N)=O)cc1)NC[C@H](O)COc1cccc2[nH]ncc12 [Compound 2] | 742.4 µmol/L | 141.2 µmol/L | -39.3% | lipolytic effects (non-esterified fatty acid levels) [1]: modest lipolytic effects; anabolic effects (change in serum urea nitrogen levels) [1]: significantly greater
CC(C)(Cc1ccc(Oc2ccc(C(N)=O)cn2)cc1)NC[C@H](O)COc1cccc2[nH]c(=O)[nH]c12 [Compound 7] | -4.2 µmol/L | 134.1 µmol/L | -9.7% | –
CC(C)(Cc1ccc(Oc2cccc(Cl)c2C(N)=O)cc1)NC[C@H](O)COc1cccc2[nH]ccc12 [Compound 10] | -72.7 µmol/L | 52.7 µmol/L | -20.7% | –
CC(C)(Cc1ccc(Oc2ncccc2C(N)=O)cc1)NC[C@H](O)COc1cccc2[nH]c(=S)[nH]c12 [Compound 4] | 265.3 µmol/L | 283.1 µmol/L | -57% | lipolytic effects (non-esterified fatty acid levels) [1]: modest lipolytic effects; anabolic effects (change in serum urea nitrogen levels) [1]: significantly greater
CC(C)(C)NCC(O)c1cc(Cl)c(N)c(Cl)c1 (stereo not drawn) [Clenbuterol, reference compound] | – | – | – | Dressing Percentage ([2]; 1 PPM in feed, day 35-49): 72.77**; Fat Pad Weight ([2]; 1 PPM in feed, day 35-49): 26.86 g; Final Weight ([2]; 1 PPM in feed, day 35-49): 3.02 kg; Hot Carcass Weights ([2]; 1 PPM in feed, day 35-49): 2191.64** g; Pen Feed Intake ([2]; 1 PPM in feed, day 35-49): 25.20 kg; Total 14 day Weight Gain ([2]; 1 PPM in feed, day 35-49): 1.29 kg; Viscera Weight ([2]; 1 PPM in feed, day 35-49): 285.45 g; Feed Efficiency F/G ([2]; 1 PPM in feed, day 35-49, pen feed intake/total pen weight): 1.99; increase in weight gain over control ([2]; 1 PPM, 14-day treatment period, P=0.1430): 2.38%; improvement of feed efficiency versus control ([2]; 1 PPM, 14-day treatment period, P=0.7320): 0.50%; increase in hot carcass weights compared to control ([2]; 1 PPM, P=0.0027): 3.25%; decrease in viscera weights with respect to control ([2]; 1 PPM, P=0.7215): 0.66%
